Target: TYK2 (Homo sapiens, UniProt P29597)
Assay: TYK2 protein degradation in MOLT-4 cells by immunoblotting
Assay type: cell-based
Set-up: endogenous in cells; host or cells: MOLT-4
Conditions: MOLT-4 cells, 24 hours
Outline: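 Percent TYK2 degradation came from densitometry of chemiluminescent immunoblots of RIPA lysates. Before lysis, MOLT-4 cells had been treated for 24 h with each compound at 0.5 or 5 μM.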

TYK2, sequence (P29597 whole entry): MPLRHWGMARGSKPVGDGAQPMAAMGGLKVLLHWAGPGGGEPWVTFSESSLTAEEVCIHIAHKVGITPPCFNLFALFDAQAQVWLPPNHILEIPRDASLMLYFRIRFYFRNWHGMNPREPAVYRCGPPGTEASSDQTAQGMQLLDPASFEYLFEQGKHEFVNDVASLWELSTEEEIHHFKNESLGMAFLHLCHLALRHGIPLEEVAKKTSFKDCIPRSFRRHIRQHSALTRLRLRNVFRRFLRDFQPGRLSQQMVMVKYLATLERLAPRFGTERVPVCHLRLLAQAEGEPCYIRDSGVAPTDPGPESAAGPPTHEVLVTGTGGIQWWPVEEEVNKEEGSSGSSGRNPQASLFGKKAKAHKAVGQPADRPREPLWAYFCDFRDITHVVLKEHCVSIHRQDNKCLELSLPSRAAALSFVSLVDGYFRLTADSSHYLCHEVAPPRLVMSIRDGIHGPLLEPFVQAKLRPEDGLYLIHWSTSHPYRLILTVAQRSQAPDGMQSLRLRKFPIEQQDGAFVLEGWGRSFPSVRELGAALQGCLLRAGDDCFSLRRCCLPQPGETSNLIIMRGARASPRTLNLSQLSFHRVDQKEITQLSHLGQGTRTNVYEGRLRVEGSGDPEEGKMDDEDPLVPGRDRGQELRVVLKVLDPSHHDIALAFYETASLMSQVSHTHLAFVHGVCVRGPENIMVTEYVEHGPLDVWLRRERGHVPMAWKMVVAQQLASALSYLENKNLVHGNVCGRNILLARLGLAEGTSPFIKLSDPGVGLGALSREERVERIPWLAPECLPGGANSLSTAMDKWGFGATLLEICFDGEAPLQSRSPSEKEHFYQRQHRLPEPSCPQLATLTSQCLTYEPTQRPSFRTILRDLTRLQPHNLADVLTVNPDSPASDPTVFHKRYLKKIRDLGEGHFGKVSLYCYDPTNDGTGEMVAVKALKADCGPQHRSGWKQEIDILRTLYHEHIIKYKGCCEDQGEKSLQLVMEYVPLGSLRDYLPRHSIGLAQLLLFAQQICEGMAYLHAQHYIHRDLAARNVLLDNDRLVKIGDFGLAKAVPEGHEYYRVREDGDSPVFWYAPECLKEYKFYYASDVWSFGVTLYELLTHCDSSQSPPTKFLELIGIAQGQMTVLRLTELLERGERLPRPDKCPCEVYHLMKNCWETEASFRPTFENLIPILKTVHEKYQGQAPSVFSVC

CNC(=O)c1nnc(NC(=O)C2CC2)cc1Nc1cccc(-c2ncn(CCNC(=O)CCOCCC(=O)N[C@H](C(=O)N3C[C@H](O)C[C@H]3C(=O)NCc3ccc(-c4scnc4C)cc3)C(C)(C)C)n2)c1OC [CPD-067, 6-(Cyclopropanecarboxamido)-4-((3-(1-(2-(3-(3-(((S)-1-((2S,4R)-4-hydroxy-2-((4-(4-methylthiazol-5-yl)benzyl)carbamoyl)pyrrolidin-1-yl)-3,3-dimethyl-1-oxobutan-2-yl)amino)-3-oxopropoxy)propanamido)ethyl)-1H-1,2,4-triazol-3-yl)-2-methoxyphenyl)amino)-N-methylpyridazine-3-carboxamide]
TYK2 Degradation (0.5 μM): ≤20% | TYK2 Degradation (5 μM): ≤20%

CNC(=O)c1nnc(NC(=O)C2CC2)cc1Nc1cccc(-c2ncn(CCNC(=O)CCOCCNc3cccc4c3C(=O)N(C3CCC(=O)NC3=O)C4=O)n2)c1OC (stereo not shown) [CPD-008, 6-(Cyclopropanecarboxamido)-4-((3-(1-(2-(3-(2-((2-(2,6-dioxopiperidin-3-yl)-1,3-dioxoisoindolin-4-yl)amino)ethoxy)propanamido)ethyl)-1H-1,2,4-triazol-3-yl)-2-methoxyphenyl)amino)-N-methylpyridazine-3-carboxamide]
TYK2 Degradation (0.5 μM): ≤20%

CNC(=O)c1nnc(NC(=O)C2CC2)cc1Nc1cccc(-c2ncn(CCNC(=O)CCC(=O)N[C@H](C(=O)N3C[C@H](O)C[C@H]3C(=O)NCc3ccc(-c4scnc4C)cc3)C(C)(C)C)n2)c1OC [CPD-075, N^1-(2-(3-(3-((6-(Cyclopropanecarboxamido)-3-(methylcarbamoyl)pyridazin-4-yl)amino)-2-methoxyphenyl)-1H-1,2,4-triazol-1-yl)ethyl)-N^4-((S)-1-((2S,4R)-4-hydroxy-2-((4-(4-methylthiazol-5-yl)benzyl)carbamoyl)pyrrolidin-1-yl)-3,3-dimethyl-1-oxobutan-2-yl)succinamide]
TYK2 Degradation (0.5 μM): ≤20% | TYK2 Degradation (5 μM): ≤20%

CNC(=O)c1nnc(NC(=O)C2CC2)cc1Nc1cccc(-c2ncn(CCNC(=O)CCCCCNc3cccc4c3C(=O)N(C3CCC(=O)NC3=O)C4=O)n2)c1OC (stereo not shown) [CPD-005, 6-(Cyclopropanecarboxamido)-4-((3-(1-(2-(6-((2-(2,6-dioxopiperidin-3-yl)-1,3-dioxoisoindolin-4-yl)amino)hexanamido)ethyl)-1H-1,2,4-triazol-3-yl)-2-methoxyphenyl)amino)-N-methylpyridazine-3-carboxamide]
TYK2 Degradation (0.5 μM): ≤20%

CNC(=O)c1nnc(NC(=O)C2CC2)cc1Nc1cccc(-c2ncn(CCNC(=O)CCOCCOCCOCCOCCOCCC(=O)N[C@H](C(=O)N3C[C@H](O)C[C@H]3C(=O)NCc3ccc(-c4scnc4C)cc3)C(C)(C)C)n2)c1OC [CPD-074, N^1-(2-(3-(3-((6-(Cyclopropanecarboxamido)-3-(methylcarbamoyl)pyridazin-4-yl)amino)-2-methoxyphenyl)-1H-1,2,4-triazol-1-yl)ethyl)-N^19-((S)-1-((2S,4R)-4-hydroxy-2-((4-(4-methylthiazol-5-yl)benzyl)carbamoyl)pyrrolidin-1-yl)-3,3-dimethyl-1-oxobutan-2-yl)-4,7,10,13,16-pentaoxanonadecanediamide]
TYK2 Degradation (0.5 μM): ≤20% | TYK2 Degradation (5 μM): ≤20%

CNC(=O)c1nnc(NC(=O)CNC(=O)CCOCCOCCOCCOCCNc2cccc3c2C(=O)N(C2CCC(=O)NC2=O)C3=O)cc1Nc1cccc(-c2ncn(C)n2)c1OC (stereo not shown) [CPD-052, 6-(1-((2-(2,6-Dioxopiperidin-3-yl)-1,3-dioxoisoindolin-4-yl)amino)-15-oxo-3,6,9,12-tetraoxa-16-azaoctadecan-18-amido)-4-((2-methoxy-3-(1-methyl-1H-1,2,4-triazol-3-yl)phenyl)amino)-N-methylpyridazine-3-carboxamide]
TYK2 Degradation (0.5 μM): ≤20% | TYK2 Degradation (5 μM): ≤20%

CNC(=O)c1nnc(NC(=O)C2CC2)cc1Nc1cccc(-c2ncn(CCNC(=O)CCOCCOCCOCCC(=O)N[C@H](C(=O)N3C[C@H](O)C[C@H]3C(=O)NCc3ccc(-c4scnc4C)cc3)C(C)(C)C)n2)c1OC [CPD-071, 6-(Cyclopropanecarboxamido)-4-((3-(1-((5)-18-((2S,4R)-4-hydroxy-2-((4-(4-methylthiazol-5-yl)benzyl)carbamoyl)pyrrolidine-1-carbonyl)-19,19-dimethyl-4,16-dioxo-7,10,13-trioxa-3,17-diazaicosyl)-1H-1,2,4-triazol-3-yl)-2-methoxyphenyl)amino)-N-methylpyridazine-3-carboxamide]
TYK2 Degradation (0.5 μM): ≤20% | TYK2 Degradation (5 μM): ≤20%

CNC(=O)c1nnc(NC(=O)CNC(=O)CCOCCOCCOCCOCCNc2ccc3c(c2)C(=O)N(C2CCC(=O)NC2=O)C3=O)cc1Nc1cccc(-c2ncn(C)n2)c1OC (stereo not shown) [CPD-064, 6-(1-((2-(2,6-Dioxopiperidin-3-yl)-1,3-dioxoisoindolin-5-yl)amino)-15-oxo-3,6,9,12-tetraoxa-16-azaoctadecan-18-amido)-4-((2-methoxy-3-(1-methyl-1H-1,2,4-triazol-3-yl)phenyl)amino)-N-methylpyridazine-3-carboxamide]
TYK2 Degradation (0.5 μM): ≤20% | TYK2 Degradation (5 μM): ≤20%

CNC(=O)c1nnc(Nc2ccc(N3CCN(C(=O)CC(=O)N[C@H](C(=O)N4C[C@H](O)C[C@H]4C(=O)NCc4ccc(-c5scnc5C)cc4)C(C)(C)C)CC3)cn2)cc1Nc1cccc(-c2ncn(C)n2)c1OC [CPD-111, 6-((5-(4-(3-(((S)-1-((2S,4R)-4-Hydroxy-2-((4-(4-methylthiazol-5-yl)benzyl)carbamoyl)pyrrolidin-1-yl)-3,3-dimethyl-1-oxobutan-2-yl)amino)-3-oxopropanoyl)piperazin-1-yl)pyridin-2-yl)amino)-4-((2-methoxy-3-(1-methyl-1H-1,2,4-triazol-3-yl)phenyl)amino)-N-methylpyridazine-3-carboxamide]
TYK2 Degradation (MOLT-4, 0.5 μM): B (B: <60% TYK2 degradation, and >20% TYK2 degradation) | TYK2 Degradation (MOLT-4, 5 μM): B (B: <60% TYK2 degradation, and >20% TYK2 degradation)

CNC(=O)c1nnc(NC(=O)C2CC2)cc1Nc1cccc(-c2ncn(CCNC(=O)CCCCNc3ccc4c(c3)C(=O)N(C3CCC(=O)NC3=O)C4=O)n2)c1OC (stereo not shown) [CPD-016, 6-(Cyclopropanecarboxamido)-4-((3-(1-(2-(5-((2-(2,6-dioxopiperidin-3-yl)-1,3-dioxoisoindolin-5-yl)amino)pentanamido)ethyl)-1H-1,2,4-triazol-3-yl)-2-methoxyphenyl)amino)-N-methylpyridazine-3-carboxamide]
TYK2 Degradation (0.5 μM): ≤20%

CNC(=O)c1nnc(NC(=O)CNC(=O)CCOc2cc(-c3scnc3C)ccc2CNC(=O)[C@@H]2C[C@@H](O)CN2C(=O)[C@@H](NC(=O)C2(F)CC2)C(C)(C)C)cc1Nc1cccc(-c2ncn(C)n2)c1OC [CPD-102, 6-(2-(3-(2-(((2S,4R)-1-((S)-2-(1-Fluorocyclopropane-1-carboxamido)-3,3-dimethylbutanoyl)-4-hydroxypyrrolidine-2-carboxamido)methyl)-5-(4-methylthiazol-5-yl)phenoxy)propanamido)acetamido)-4-((2-methoxy-3-(1-methyl-1H-1,2,4-triazol-3-yl)phenyl)amino)-N-methylpyridazine-3-carboxamide]
TYK2 Degradation (MOLT-4, 0.5 μM): C (C: ≤20% TYK2 degradation) | TYK2 Degradation (MOLT-4, 5 μM): C (C: ≤20% TYK2 degradation)

— US20240059671A1, “TYROSINE KINASE 2 (TYK2) DEGRADATION COMPOUNDS AND METHODS OF USE” (CULLGEN (SHANGHAI), INC., priority 2020, published 2024)
